Earlier results in patent publication US20250360113A1, “ADMINISTRATION OF DHB TO INCREASE BENEFIT OF LOSING WEIGHT OF INTERMITTENT FASTING” (NANJING NUTRABUILDING BIO-TECH CO., LTD., priority 2023, published 2025).

Legend:
brown adipocyte = details: by increasing transcription of PRDM16 via AMPK activation and PGC-1α recruitment; cited from earlier work
[1] = obese db/db mice; cited from earlier work

In the case of `COc1ccc2cc3[n+](cc2c1OC)CCc1cc2c(cc1-3)OCO2` [BBR, berberine], the “brown adipocyte differentiation and brown adipose tissues (BAT) thermogenesis” value (brown adipocyte) is given as “promote”, the “energy expenditure and adaptive thermogenesis” value [1] is given as “increase” and the “thermogenic program in BAT” value [1] is given as “promote”. The weight gain [1] was “reduce”.
